Results: ChEMBL document CHEMBL4130576, “Cephanolides A-J, Cephalotane-Type Diterpenoids from Cephalotaxus sinensis” (J Nat Prod, 2017)
Structures can show the parent of a compound that is named as a salt.

Experiments:
HT-29 [1] = experiment: Cytotoxicity against human HT-29 cells assessed as inhibition of cell viability at 10 uM by SRB assay relative to control; format: functional
KB [2] = experiment: Cytotoxicity against human KB cells assessed as inhibition of cell viability at 10 uM by SRB assay relative to control; format: functional
HL-60 [3] = experiment: Cytotoxicity against human HL60 cells assessed as inhibition of cell viability at 10 uM by MTT assay relative to control; format: functional
A549 [4] = experiment: Cytotoxicity against human A549 cells assessed as inhibition of cell viability at 10 uM by SRB assay relative to control; format: functional
KB [5] = experiment: Cytotoxicity against human KB cells by SRB assay; format: functional, cell-based
A549 [6] = experiment: Cytotoxicity against human A549 cells by SRB assay; format: functional, cell-based
HL-60 [7] = experiment: Cytotoxicity against human HL60 cells by MTT assay; format: functional, cell-based
HT-29 [8] = experiment: Cytotoxicity against human HT-29 cells by SRB assay; format: functional, cell-based

Row | Compound | inhibition at 10 µM (HT-29 [1]) [%] | inhibition at 10 µM (KB [2]) [%] | inhibition at 10 µM (HL-60 [3]) [%] | inhibition at 10 µM (A549 [4]) [%] | IC50 (KB [5]) [nM] | IC50 (A549 [6]) [nM] | IC50 (HL-60 [7]) [nM] | IC50 (HT-29 [8]) [nM]
1 | C=C1[C@H](O)CC[C@@]2(CO)CCC34C(=O)O[C@@H](C[C@H]3C)[C@H]3C[C@H]1[C@@H]2[C@H]34 | < 50 | < 50 | < 50 | < 50 | – | – | – | –
2 | Cc1cc(=O)cc2c3c1[C@@H]1O[C@H]4C5OC(=O)C(CC2)([C@@H]4C)[C@H]3[C@@]51O | – | – | – | – | 964 | 1330 | 464 | 817
3 | Cc1c(O)cc2c3c1[C@@H]1O[C@H]4C5OC(=O)C(CC2)([C@@H]4C)[C@H]3[C@@H]51 | < 50 | < 50 | < 50 | < 50 | – | – | – | –
4 | COc1cccc2c1C(=O)c1c(O)c3c(c(O)c1C2=O)C[C@@](O)(C(=O)CO)C[C@@H]3O[C@H]1C[C@H](N)[C@H](O)[C@H](C)O1 [DOXORUBICIN HYDROCHLORIDE] | – | – | – | – | 570 | – | 76 | 559
5 | Cc1cc(=O)cc2c3c1C[C@@H]1[C@@H]4C[C@@H](C)C(C=C2)(C(=O)O4)[C@]31O | < 50 | < 50 | < 50 | < 50 | – | – | – | –
6 | C[C@@H]1C[C@@H]2OC(=O)C13CC[C@]14C[C@H](C=C(CO)[C@H]5C[C@H]2[C@H]3[C@@H]51)OC4=O | < 50 | < 50 | < 50 | < 50 | – | – | – | –
7 | CC1=CCC[C@@]2(CO)CCC34C(=O)O[C@@H](C[C@H]3C)[C@H]3C[C@H]1[C@@H]2[C@H]34 | < 50 | < 50 | < 50 | < 50 | – | – | – | –
8 | Cc1cc(=O)cc2c3c1C[C@@H]1[C@@H]4C[C@@H](C)C(CC2)(C(=O)O4)[C@]31O | – | – | – | – | 2650 | 6090 | 1240 | 3220
9 | C[C@@H]1C[C@@H]2OC(=O)C13CC[C@@]14C[C@@H](OC1=O)[C@H](O)[C@](C)(O)C1=C4[C@@H]3[C@@H]2C1 | < 50 | < 50 | < 50 | < 50 | – | – | – | –
10 | Cc1ccc2c3c1C[C@@H]1[C@@H]4C[C@@H](C)C(CC2=O)(C(=O)O4)[C@]31O | < 50 | < 50 | < 50 | < 50 | – | – | – | –
11 | COC(=O)c1cc(C)c2c3c1C(=O)CC14C(=O)O[C@@H](C[C@H]1C)[C@@H](C2)[C@@]34O | < 50 | < 50 | < 50 | < 50 | – | – | – | –
12 | Cc1c(O)cc2c3c1C[C@@H]1[C@@H]4C[C@@H](C)C(CC2)(C(=O)O4)[C@H]31 | < 50 | < 50 | < 50 | < 50 | – | – | – | –
13 | CC1=C[C@H]2C[C@]3(CCC45C(=O)O[C@@H](C[C@H]4C)[C@H]4C[C@H]1[C@@H]3[C@H]45)CO2 | < 50 | < 50 | < 50 | < 50 | – | – | – | –
